From patent US20250186403A1 (ARIZONA BOARD OF REGENTS ON BEHALF OF THE UNIVERSITY OF …, priority 2022, published 2025)

What was measured:
[1] = 7-day toxicity study in mice; assay type: in vivo, BALB/c mice; design: key to Movement score (first line, r17) / Movement score (second line, r19): 0 = Normal; 1 = slight incoordination/decreased righting response; 2 = tiptoe walking or altered gait involving 1 limb; 3 = staggering or paralysis or tremors of 2 or more limbs; key to Coat condition score: 0 = normal/groomed; 1 = rough; 2 = ruffled/unkempt; key to Posture score: 0 = normal; 1 = slightly hunched; 2 = moderately hunched; 3 = severally hunched; settings: for Coat condition score / Death / Movement score (first line, r17) / Movement score (second line, r19) / Posture score / Seizure: individual mice
Description: FIGS. 4A, 4B, and 4C show in vitro and in vivo toxicity. […] A549 and RAW 264.7 cells were grown in 96 well plates till 70% confluent. RAW 264.7 cells were differentiated into macrophages using PMA. […] The cell viability was estimated by Cell Counting Kit-8 (GlpBio, CA, USA), and absorbance was read at 450 nm using microplate reader Synergy H1 (BioTek). CC50 was calculated by GraphPad prism. […] Abs: absorbance. […] Bodyweight and other parameters were monitored daily (Table 3).
The mice were observed twice daily for general health, movement, activity, and coat condition and scored. Food and water were ad libitum. On day 7, the mice were euthanized, and necropsy was done to see any changes in the organs as compared to the normal mice by visual observation.

[2] = test system: Cga split-cfGFP-Prp8 intein protein; test: Split GFP-Prp8 intein splicing assay (SDS-PAGE); assay type: biochemical, Cryptococcus gattii; settings: vs DMSO control, 30 μM protein, 24 h
Description: TCEP is added to a final concentration of 100 µM and incubated for 24 h. The substrate Nano-Glo luciferase (Promega) was added, and the resulting luminescence was read. IC50 was calculated using GraphPad prism. […] TCEP was added to a concentration of 1 mM and incubated for 24 h. From this reaction mixture, 10 μl was mixed with an equal volume of 2×SDA-PAGE loading dye and loaded onto 12% SDS-PAGE gel without boiling the sample. The gel was scanned with UV using Chemidoc (Bio Rad), and band intensities were quantified using Image Lab software. […] Cells were harvested and washed in PBS, lysed with bead lyser, and centrifuged at 10,000 rpm. An equal quantity of protein (50 μg) from each treatment was loaded onto 12% SDS-PAGE and blotted onto the NC membrane, blocked with 5% skimmed milk. The membrane was probed with anti-prp8 intein rabbit polyclonal sera, followed by goat anti-rabbit HRP antibody. Signals were developed using a chemiluminescent kit. The density of the spliced intein bands (˜20 kDa) were quantified using Image lab software. A band at ˜130 kDa is uncharacterized, as explained below. NC: nitrocellulose. Abs: absorbance […]
TCEP to a final concentration of 1 mM was added to induce splicing and further incubated at RT for 24 h. […] The band densities were quantified using image lab software.

[3] = CMN 5 mg/kg BW oral daily 7 days
[4] = CMN 10 mg/kg BW oral daily 7 days
[5] = CMN 20 mg/kg BW oral daily 7 days
[6] = CMN 40 mg/kg BW oral daily 7 days

SMILES: CNc1ccc2oc(C[C@H]3O[C@@]4(CC[C@H]3C)O[C@H]([C@H](C)C(=O)c3ccc[nH]3)[C@H](C)C[C@H]4C)nc2c1C(=O)O [CMN, calcimycin]
- other morbidity ([1]; 40 mg/ml daily oral gavage, 7 days): no other morbidity was observed
- loss of body weight ([1]; 40 mg/ml daily oral gavage, by day 7): 8%
- activity of mice ([1]; 40 mg/ml, for 1-2 h post-dosing): slower
- Coat condition score [1, 3]: 0
- Death [1, 3]: 0
- Movement score (first line, r17) [1, 3]: 0
- Movement score (second line, r19) [1, 3]: 0
- Posture score [1, 3]: 0
- Seizure [1, 3]: 0
- Coat condition score [1, 4]: 0
- Death [1, 4]: 0
- Movement score (first line, r17) [1, 4]: 0
- Movement score (second line, r19) [1, 4]: 0
- Posture score [1, 4]: 0
- Seizure [1, 4]: 0
- Coat condition score [1, 5]: 0
- Death [1, 5]: 0
- Movement score (first line, r17) [1, 5]: 0
- Movement score (second line, r19) [1, 5]: 0
- Posture score [1, 5]: 0
- Seizure [1, 5]: 0
- Coat condition score [1, 6]: 0
- Death [1, 6]: 0
- Movement score (first line, r17) [1, 6]: 1
- Movement score (second line, r19) [1, 6]: 0
- Posture score [1, 6]: 0
- Seizure [1, 6]: 0
- change in activity, appearance of fur, weight loss ([1]; daily oral gavage at 5, 10, 20 mg/ml, 7 days): no significant change
- splicing of split GFP-Prp8 intein [2]: inhibited with CMN dose-dependently
